The target of one data set is P-gp (Homo sapiens, UniProt P08183). As to the kind of experiment: Rhodamine 123 accumulation assay (P-gp activity, flow cytometry). Particulars: MDR NCI-H460/R and DLD1-TxR cells, 30 min, one concentration per compound (100 nM-10 µM), Figure 3a. On the set-up: P-gp overexpressing multidrug resistant DLD1-TxR cells were selected by continuous exposure to stepwise increasing concentrations of paclitaxel from DLD1 cells; endogenous in cells; host or cells: NCI-H460/R and DLD1-TxR (drug-selected MDR human cancer cells). The data set is classed as cell-based. The protocol:
To study the effect of Hsp90 inhibitors on P-gp activity in MDR cancer cells, intracellular accumulation of the P-gp substrate rhodamine 123 (Rho 123) was analyzed by flow cytometry after 30 min treatment (Figure 3a). A well-known inhibitor of P-gp activity, tariquidar (TQ), was included as a positive control.
The accumulation of Rho 123, a fluorescent P-gp substrate, was measured by flow cytometry. The intensity of the fluorescence is proportional to Rho 123 accumulation in the cell. All cell lines were seeded in adherent 6-well plates and grown overnight. DLD1-TxR and NCI-H460/R cells were treated for 30 min with the following concentrations of Hsp90 inhibitors: 500 nM compound 3, 1 µM compound 4, 10 µM compound 5, 500 nM compound 6, 500 nM compound 7, 1 µM compound 8, 500 nM compound 9, 1 µM compound 10, 1 µM compound 13, 10 µM compound 14, 100 nM compound 15. TQ (10 nM) was used as a positive control for Rho 123 accumulation. Rho 123 (5 μM) was simultaneously added with the investigated compounds and the cells were incubated at 37 °C in 5% CO2 for 30 min. The cells were then trypsinized, pelleted by centrifugation, washed with PBS and placed in ice-cold PBS. The samples were kept on ice in the dark until the analysis on CyFlow Space Partec flow cytometer (Sysmex Partec GmbH, Görlitz, Germany). The fluorescence of Rho 123 was detected on fluorescence channel 1 (FL1-H) at 530 nm. A minimum of 10,000 events were collected for each sample and the obtained results were analyzed using Summit software.

A further data set concerns DLD1-TxR cells. As to the kind of experiment: Combined treatment of compound 5 with PTX, MTT, median effect analysis. In kind it is cell-based, human. Particulars: PTX resistance. The protocol: (§1) The combined effects of compound 5 with DOX as well as with PTX were studied in NCI-H460/R and DLD1-TxR cells, respectively, by MTT assay. In simultaneous treatments that lasted 72 h in NCI-H460/R cells, three concentrations of compound 5 (2.5, 5, and 10 µM) were combined with increasing concentrations of DOX (250, 500 and 1000 nM), while in DLD1-TxR cells different concentrations of compound 5 (1, 2.5, and 5 µM) were combined with increasing concentrations of PTX (100, 250 and 500 nM). The nature of the interaction between Hsp90 inhibitors and DOX/PTX was analyzed with CalcuSyn software v1.1 (Biosoft, Cambridge, UK) that uses the Combination Index method based on the multiple drug effect equation [54]. Three data points were used for each single drug in each experiment. The non-constant ratio combination was chosen to assess the effect of both drugs in combination. The results are presented in a fraction-affected CI graph. Values of CI < 1 point to a pronounced additive effect or synergism (the smaller value, the greater the degree of synergy). A value of CI = 1 indicates an additive effect, while values of CI > 1 point to an antagonistic effect.

In a further data set the test system is NCI-H460/R cells. Put plainly: Combined treatment of compound 5 with DOX, MTT, median effect analysis. The settings on record: for Relative Reversal: DOX resistance; for IC50: Homo sapiens, NCI-H460, 72 h. In kind it is cell-based, human. The protocol:
as §1

“Also recorded” adds a separate entry of the source.

The record followed here is PMC6770006, “Novel Heat Shock Protein 90 Inhibitors Suppress P-Glycoprotein Activity and Overcome Multidrug Resistance in Cancer Cells” (International Journal of Molecular Sciences, 2019).

Chain of P-gp (P08183 whole entry): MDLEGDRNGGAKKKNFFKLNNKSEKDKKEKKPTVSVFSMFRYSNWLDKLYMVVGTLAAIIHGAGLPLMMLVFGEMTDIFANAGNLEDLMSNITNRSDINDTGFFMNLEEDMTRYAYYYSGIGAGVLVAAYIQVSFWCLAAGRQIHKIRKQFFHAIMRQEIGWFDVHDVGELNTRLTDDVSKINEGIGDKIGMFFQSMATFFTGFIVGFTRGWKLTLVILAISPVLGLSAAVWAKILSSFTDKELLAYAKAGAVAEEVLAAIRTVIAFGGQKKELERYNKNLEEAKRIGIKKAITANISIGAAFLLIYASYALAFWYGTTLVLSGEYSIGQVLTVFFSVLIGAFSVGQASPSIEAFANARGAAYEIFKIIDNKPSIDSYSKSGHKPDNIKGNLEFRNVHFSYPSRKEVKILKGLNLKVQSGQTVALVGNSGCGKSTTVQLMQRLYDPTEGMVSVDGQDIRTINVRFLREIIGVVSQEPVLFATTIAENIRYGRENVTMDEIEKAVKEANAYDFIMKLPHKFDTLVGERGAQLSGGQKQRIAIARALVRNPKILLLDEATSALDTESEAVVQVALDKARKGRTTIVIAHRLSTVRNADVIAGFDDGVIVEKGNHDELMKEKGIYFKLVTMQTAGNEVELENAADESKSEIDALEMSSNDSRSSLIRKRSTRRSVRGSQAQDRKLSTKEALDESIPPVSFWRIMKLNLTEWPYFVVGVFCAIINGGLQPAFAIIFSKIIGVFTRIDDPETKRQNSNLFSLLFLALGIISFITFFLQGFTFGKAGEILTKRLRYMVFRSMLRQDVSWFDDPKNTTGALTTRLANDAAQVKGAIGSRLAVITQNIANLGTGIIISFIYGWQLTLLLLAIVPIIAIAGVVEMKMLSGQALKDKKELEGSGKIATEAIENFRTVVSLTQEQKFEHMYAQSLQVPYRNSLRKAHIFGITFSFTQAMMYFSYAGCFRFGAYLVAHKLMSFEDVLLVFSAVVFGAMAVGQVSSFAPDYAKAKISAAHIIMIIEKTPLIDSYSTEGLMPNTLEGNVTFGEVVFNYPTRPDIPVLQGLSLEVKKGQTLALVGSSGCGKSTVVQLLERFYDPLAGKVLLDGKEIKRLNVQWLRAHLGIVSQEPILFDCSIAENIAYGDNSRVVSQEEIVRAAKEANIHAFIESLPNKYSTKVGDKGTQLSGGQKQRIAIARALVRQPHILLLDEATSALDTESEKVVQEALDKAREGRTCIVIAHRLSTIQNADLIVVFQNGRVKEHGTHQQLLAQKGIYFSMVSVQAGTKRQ

On to `O=C1c2ccccc2C(=O)c2c(-c3ccccc3O)noc21` [Compound 5], for which the “P-gp activity / Rho 123 accumulation” value at P-gp was “significant beneficial effect on P-gp inhibition; also recorded: most prominent effect in both MDR cell lines”. The “Relative Reversal” value in the data set with DLD1-TxR cells (1 µM compound 5) turned out to be 1.80; in the data set on DLD1-TxR cells (2.5 µM compound 5), 2.60; with DLD1-TxR cells (5 µM compound 5) it was 5.27; with NCI-H460/R cells (2.5 µM compound 5), 1.31; in the data set with NCI-H460/R cells (5 µM compound 5), 2.62; in the data set with NCI-H460/R cells (10 µM compound 5), 5.28. The 50% inhibitory concentration (IC50) with NCI-H460/R cells (DOX + 2.5 µM compound 5, 72 h) was found to be 1.73 ± 0.0309 µM; with NCI-H460/R cells (DOX + 5 µM compound 5, 72 h) it was 0.864 ± 0.0256 µM; in the data set on NCI-H460/R cells (DOX + 10 µM compound 5, 72 h), 0.429 ± 0.0133 µM.

For `O=C1c2ccccc2C(=O)c2c(-c3ccncc3)noc21` [Compound 7], the “P-gp activity / Rho 123 accumulation” value on P-gp is “most prominent effect in both MDR cell lines”.

On to `O=C1c2ccccc2C(=O)c2c(-c3cccnc3)noc21` [Compound 9], for which the “P-gp activity / Rho 123 accumulation” value at P-gp is listed as “most prominent effect in both MDR cell lines”.
